In US7666587B2, “Method of screening test substances for treating or preventing a disease mediated by plasma cells” (priority 2002, dated 2010):
Residues, ends and D or L forms follow the SMILES beside them. *: point of attachment. Cbz = O=C(OCc1ccccc1)*

Key:
XBP-1 [1] = test: Metabolic pulse labelling and immunoprecipitation of endogenous XBP-1 proteins; type: cell-based, mouse
Method: Mouse embryonic fibroblasts and ES cells lacking IRE1 activity (IRE1α−/− or IRE1α, IRE1β−/−) and PERK−/−fibroblasts were cultured as previously described (Harding et al., “Regulated Translation Initiation Controls Stress-Induced Gene Expression in Mammalian Cells,” Mol. Cell 6:1099-1108 (2000); and Urano et al., “Coupling of Stress in the Endoplasmic Reticulum to Activation of JNK Protein Kinases by Transmembrane Protein Kinase IRE1,” Science 287:664-666 (2000), which are hereby incorporated by reference in their entirety). Cells were treated with tunicamycin (2.5 μg/ml, Calbiochem), thapsigargin (100 nM, Sigma), dithiothreitol (2 mM, Sigma) or the proteasome inhibitor MG132 (25 μM, Calbiochem) as indicated. To prepare B-cell blasts, cells were teased from crushed adult mouse spleen and cultured in the presence of 25 μg/ml E. coli lipopolysaccharide.
Newly synthesized proteins were labeled in vivo with ^35S-methionine and ^35S-cysteine (500 μCi/ml, Translabel, ICN Biochemicals). After removal of the labeling media cells were washed and incubated in complete media for cold-chase. […] Incorporation of radiolabel was quantified by phosphoimager analysis. In calculating the relative synthesis rates of 54 kDa XBP-1 and 33 kDa XBP-1 the relative incorporation of label was corrected for differences in the content of methionine (7:6) and cysteine (4:3) predicted for the two proteins. […]

XBP-1 [2] = test: XBP-1 immunoblot during in vitro differentiation of B-cells to plasma cells; type: cell-based; details: mouse spleen cells, 25 μg/ml E. coli lipopolysaccharide
Method: (§1) Mouse embryonic fibroblasts and ES cells lacking IRE1 activity (IRE1α−/− or IRE1α, IRE1β−/−) and PERK−/−fibroblasts were cultured as previously described (Harding et al., “Regulated Translation Initiation Controls Stress-Induced Gene Expression in Mammalian Cells,” Mol. Cell 6:1099-1108 (2000); and Urano et al., “Coupling of Stress in the Endoplasmic Reticulum to Activation of JNK Protein Kinases by Transmembrane Protein Kinase IRE1,” Science 287:664-666 (2000), which are hereby incorporated by reference in their entirety). Cells were treated with tunicamycin (2.5 μg/ml, Calbiochem), thapsigargin (100 nM, Sigma), dithiothreitol (2 mM, Sigma) or the proteasome inhibitor MG132 (25 μM, Calbiochem) as indicated. […]
(§2) XBP-1 proteins in whole cell extracts were detected by immunoblot of 9% PAGE-SDS using a rabbit polyclonal serum directed to residues 97-267 common to both 54 kDa and 33 kDa XBP-1 proteins (sc-7160, Santa Cruz Biotechnology). XBP-1 proteins in transfected cells were detected by a monoclonal antibody to the FLAG epitope tag (Kodak-IBI). CREB and CHOP were detected as described previously (Harding et al., “Regulated Translation Initiation Controls Stress-Induced Gene Expression in Mammalian Cells,” Mol. Cell 6:1099-1108 (2000), which is hereby incorporated by reference in its entirety).

XBP-1 [3] = test: Immunoblot of FLAG-tagged XBP-1 in transfected HEK 293T cells; type: cell-based, human; details: HEK 293T cells transfected with XBP-1^up
Method: as §1, §2

hsp-4::gfp = hsp-4::gfp transcriptional reporter induction in C. elegans (UPR); type: in vivo; details: gut and hypodermis; plates containing 5 μg/ml tunicamycin
Source text: A 1.1 kilobase (Kb) fragment of C. elegans genomic DNA immediately 5′ of the predicted initiation ATG of hsp-4 was amplified by PCR and ligated in-frame with GFP in the plasmid pPD95.75 (gift of Andy Fire, Carnegie Institute of Washington). The hsp-4::gfp(zcIs4) V strain was generated by co-injecting the hsp-4::gfp clone with the lin-15 rescuing plasmid, pSK1 (Clark et al., “The Caenorhabditis elegans Locus Lin-15, a Negative Regulator of a Tyrosine Kinase Signaling Pathway, Encodes Two Different Proteins,” Genetics 137:987-997 (1994), which is hereby incorporated by reference in its entirety), into lin-15(n765ts) animals and then integrating the extrachromosomal array with ultraviolet/trimethylpsoralen (UV/TMP) treatment. The F2 progeny of ethylmethane sulphonate (EMS)-treated hsp-4::gfp(zcIs4)V animals were screened for mutants with high levels of GFP expression to identify mutations that constitutively induce the UPR. Several mutations were recovered, including upr-1(zc6)X, which induced a high level of GFP expression in the posterior gut. To isolate mutations that blocked hsp-4::gfp induction, the F2 progeny of EMS-treated hsp-4::gfp(zcIs4) V; upr-1(zc6)X animals were screened for mutants with a reduced GFP signal. The mutations were mapped using standard methods. […]

With `CC(C)C[C@@H](C=O)NC(=O)[C@H](CC(C)C)NC(=O)[C@H](CC(C)C)NC(=O)OCc1ccccc1` [proteasome inhibitor, MG132] (Cbz-Leu-Leu-Leu-aldehyde) the “levels of 33 kDa XBP-1 protein” value (XBP-1 [1]; mouse fibroblasts, MG132 25 μM) was “increased further”.
bacterial lipopolysaccharide was tested, and the “induction of 54 kDa XBP-1 protein” value (XBP-1 [2]) was “induced”.
For tunicamycin, the “accumulation of endogenous 54 kDa XBP-1” value (XBP-1 [1]; pulse-labeled wildtype cells, tunicamycin 2.5 μg/ml) was “accumulated to high levels”, the “expression of FLAG-tagged 54 kDa XBP-1 protein” value (XBP-1 [3]) was “expressed high levels of FLAG-tagged 54 kDa protein” and the “hsp-4::gfp expression” value (hsp-4::gfp) was “strongly induced”.
